Reference: patent US20210379049A1, “PPAR-gamma AGONIST FOR TREATMENT OF BLOOD CANCERS” (Coherus Biosciences, Inc, priority 2016, published 2021)

Legend:
[1] = test system: adiponectin; assay: 24-week randomized, double-blind, placebo-controlled study: serum adiponectin levels in subjects with type 2 diabetes; type: in vivo, human; conditions: for Mean Adiponectin Week 24 / Mean Adiponectin Week 0: type 2 diabetes subjects; for Mean Adiponectin Week 0: baseline (Week 0)
Procedure: A randomized, double-blind, placebo-controlled, 24-week study was conducted in which adiponectin levels were measured. […] 367 subjects with type 2 diabetes (TD2)—a disease in which patient adiponectin levels are reduced-were randomly assigned to receive either 0.5, 1, 2 or 3 milligrams (“mg”) of INT131 besylate, 45 mg of pioglitazone or placebo daily for 24 weeks. To measure adiponectin levels blood was drawn at Weeks 0, 2, 6, 12 and 24.
At baseline (Week 0) mean adiponectin levels were 1.94 micrograms per milliliter (“μg/mL”). The mean adiponectin levels at baseline and Week 24, and the mean change in adiponectin levels from baseline (Week 0) to Week 24 are disclosed in Table 1, below. The standard deviation for samples tested in each group is listed in (parenthesis). Mean baseline adiponectin values were similar for the treatment groups.

[2] = test system: adiponectin; assay: 14-day study: serum adiponectin levels in healthy subjects; type: in vivo, human; conditions: 0.1 mg INT131 daily for 14 days
Procedure: A study was conducted to determine the effect of INT131 on serum adiponectin levels. Thirty healthy subjects were randomly selected to receive either placebo, 0.1 mg INT131, 1 mg INT131 or 4 mg INT131 daily for 14 days. To measure adiponectin levels blood was drawn at Days 1, 4, 8 and 14.

[3] = subjects taking INT131 vs those taking pioglitazone; DePaoli et al. 2014; cited from earlier work

For `O=S(=O)(Nc1cc(Cl)c(Oc2cnc3ccccc3c2)c(Cl)c1)c1ccc(Cl)cc1Cl` [INT131], which “treatment comparison of adiponectin levels with pioglitazone 45 mg” value ([1]; 0.5 mg, 1 mg and 3 mg doses of INT131 vs pioglitazone 45 mg, p≤0.0408) is on record?
The value was “statistically significant”.

And the “treatment comparison of adiponectin levels with placebo” value ([1]; 1 mg, 2 mg and 3 mg doses of INT131 vs placebo, p≤0.0109)?
Its value is “statistically significant”.

And the “Mean Adiponectin Week 24” value ([1]; Week 24, 0.5 mg INT131 daily)?
Its value is 2.28 µg/mL.

And the “Mean Adiponectin Week 24” value ([1]; Week 24, 1 mg INT131 daily)?
Its value is 3.15 µg/mL.

And the “Mean Adiponectin Week 24” value ([1]; Week 24, 2 mg INT131 daily)?
Its value is 5.14 µg/mL.

What about the “Mean Adiponectin Week 24” value ([1]; Week 24, 3 mg INT131 daily) of the same compound?
The value was 5.83 µg/mL.

What about the “Mean Adiponectin Week 0” value ([1]; 0.5 mg INT131 daily group) of the same compound?
The value was 1.73 µg/mL.

What about the “Mean Adiponectin Week 0” value ([1]; 1 mg INT131 daily group) of the same compound?
The value was 1.87 µg/mL.

And the “Mean Adiponectin Week 0” value ([1]; 2 mg INT131 daily group)?
The value was 1.87 µg/mL.

And the “Mean Adiponectin Week 0” value ([1]; 3 mg INT131 daily group)?
Its value is 2.00 µg/mL.

What about the “change in serum adiponectin levels from Day 1 to Day 14 and over placebo” value [2] of the same compound?
The value was “no significant change”.

What about the “edema, weight gain and hemodilution versus pioglitazone” value [3] of the same compound?
Its value is “less edema, weight gain, and hemodilution”.

What does the source list for `CCc1ccc(CCOc2ccc(CC3SC(=O)NC3=O)cc2)nc1` (centres unmarked) [Pioglitazone, pioglitazone, reference compound]?
Mean Adiponectin Week 24 ([1]; Week 24, 45 mg pioglitazone daily): 5.28 µg/mL; Mean Adiponectin Week 0 ([1]; 45 mg pioglitazone daily group): 2.32 µg/mL
